From patent US11866394B2, “Prodrugs of hydroxamate-based GCPII inhibitors” (The Johns Hopkins University, priority 2016, dated 2024)

Assays:
[1] = Subcutaneous plasma and sciatic nerve pharmacokinetic studies in mice; assay type: in vivo; conditions: 10 mg/kg equivalent s.q., 10-120 min post dose
Method: Bioanalysis of parent and intact prodrug in plasma and tissues: Prior to extraction, frozen samples were thawed on ice. For plasma, 50 μL of the sample was transferred into siliconized microcentrifuge tubes. For sciatic nerves, the samples were weighed in a 1.7 mL tubes and homogenized in 5× the volume of methanol. The calibration curves were prepared using naïve plasma and sciatic nerves in a concentration range of 50-10000 pmol/g or pmol/mL. Sample preparation involved a single liquid extraction by addition of 300 μL of methanol with internal standard (losartan 200 nM in methanol), followed by vortexing for 30 s and then centrifugation at 10,000×g for 10 min. Supernatant (about 250 μL) was transferred and evaporated to dryness at 40° C. under a gentle stream of nitrogen. The residue was reconstituted with 50 μL of 30% acetonitrile and analysed by LC/MS/MS.
Chromatographic analysis was performed using an Accela™ ultra high-performance system consisting of an analytical pump, and an autosampler coupled with TSQ Vantage mass spectrometer (Thermo Fisher Scientific Inc., Waltham, MA). […] The mobile phase used was composed of 0.1% formic acid in acetonitrile and 0.1% formic acid in H2O with gradient elution, starting with 10% (organic) linearly increasing to 99% up to 2.5 min, maintaining at 99% (2.5-3.5 min) and reequlibrating to 10% by 4.5 min. The total run time for each analyte was 4.5 min. The mass transitions (M−H)− used for Compound 50 were 280.077>175.168, 203.156; and for losartan were 420.895>127.040, 179.108.

[2] = In vitro metabolic stability in human plasma; assay type: in vitro ADME; conditions: 37° C.
Method: (§1) For metabolic stability, plasma (mouse, and human) and liver microsomes (mouse and human) were used. For stability, prodrugs (10 μM) were spiked in each matrix and incubated in an orbital shaker at 37° C. At predetermined times (0, 30 and 60 min), 100 μL aliquots of the mixture in triplicate were removed and the reaction quenched by addition of three times the volume of ice cold acetonitrile spiked with the internal standard (losartan 5 μM). The samples were vortexed for 30 s and centrifuged 12000 g for 10 min. 50 μL supernatant diluted with 50 μL water was transferred to a 250 μL polypropylene vial sealed with a Teflon cap. Prodrug disappearance was monitored over time using a liquid chromatography and tandem mass spectrometry (LC/MS/MS) method as described below.
(§2) For LC/MS/MS, prodrugs were separated with Thermo Scientific Accela UPLC system coupled to Accela open autosampler on an Agilent C18 (100×2.1 mm id) UPLC column. The autosampler was temperature controlled and operating at 10° C. […] The column effluent was monitored using TSQ Vantage triple-quadrupole mass spectrometric detector, equipped with an electrospray probe set in the positive ionization mode. […]
(§3) For quantification of compound remaining, disappearance of prodrugs was measured from ratio of peak areas of analyte to IS. Percentage remaining was calculated in the following manner: […]

[3] = In vitro metabolic stability in mouse plasma; assay type: in vitro ADME; conditions: 37° C.
Method: as §1, §2, §3

[4] = test system: rat chronic constriction injury (CCI) model of neuropathic pain; experiment: Chronic constrictive injury (CCI) model of neuropathic pain, thermal hyperalgesia; assay type: in vivo; conditions: oral daily, 3 mg/kg dose equivalent of 1 (50), 4.6 mg/kg/day for 12
Excerpt: All experimental protocols were approved by the Institutional Animal Care and Use Committee at Johns Hopkins University (Baltimore, MD) and adhered to all of the applicable institutional and governmental guidelines for the humane treatment of laboratory animals. Male Sprague-Dawley rats (200-250 g; n=10-15 per group) were subjected to peripheral neuropathy injury by constriction of the sciatic nerve performed according to methods described previously. (Novakova, et al., 2016; Bennett, et al., 1988; Attal, et al., 1990) In brief, the common sciatic nerve was exposed and 4 ligatures (4.0 chromic gut) tied loosely around it with 1 mm spacing. Wound clips were used to close wounds and animals were returned to home cages for recovery. Hyperalgesia testing was initiated 10 days post-surgery. Pain sensitivity was assessed by determining withdrawal latencies in response to a constant thermal stimulus directed to the plantar surface of the hind paw using a Basile Plantar apparatus (Ugo Basile, Vaarese, Italy) according to the method described by Hargreaves et al. (Hargreaves, et al., 1988) Apparatus was calibrated so that normal rats respond to the stimulus within 15 sec of application. Withdrawal latency (i.e., the time taken for the rat to withdraw its paw from the heat source) was measured to the nearest 0.1 sec. The “difference in score” was calculated by subtracting the average latency of the paw on the non-ligated versus ligated side. Each animal was tested during two experimental sessions per week, with three days allowed to elapse between test sessions. Test agents, prodrug 12 (3 mg/kg equivalent of 1), or gabapentin (50 mg/kg and 100 mg/kg po) as a positive control were dosed daily throughout the study via oral gavage and one hour before testing on experimental days. Statistical analysis with students t-test was used to determine differences between control and treatment group.

[5] = test system: rat chronic constriction injury (CCI) model of neuropathic pain; experiment: as above; assay type: in vivo; conditions: 1 mg/kg subcutaneous dose (dose equivalent of 50)
[6] = Oral plasma pharmacokinetic studies in mice; assay type: in vivo; conditions: mice (n=3), 10 mg/kg equivalent dose, plasma 30 min post dose
Method: All pharmacokinetic studies in mice were conducted according to protocols approved by the Animal Care and Use Committee at Johns Hopkins University (Baltimore, MD). Briefly, male CD 1 mice between 25 g and 30 g were obtained from Harlan Laboratories (Indianapolis, Indiana), and maintained on a 12-hour light-dark cycle with ad libitum access to food and water.
Compound 1 and its prodrugs were administered to male mice as a single (p.o.) dose of 10 mg/kg equivalent. Dosing solutions were prepared on the day of the experiment in 50 mM HEPES buffered saline and pH adjusted to 7.4. The mice were sacrificed by pentobarbital injection at 30 minutes post drug administration, and blood collected via cardiac puncture was placed into iced heparin-coated BD microtainers. Blood samples were spun at 2,000 g for 15 minutes, plasma was removed and stored at −80° C. until LC-MS analysis as previously described. (Novakova, et al., 2016) Briefly, chromatographic analysis was performed using an Accela™ ultra high-performance system consisting of an analytical pump, and an autosampler coupled with TSQ Vantage mass spectrometer (Thermo Fisher Scientific Inc., Waltham, MA). […]
Bioanalysis of parent and intact prodrug in plasma and tissues: Prior to extraction, frozen samples were thawed on ice. […] The residue was reconstituted with 50 μL of 30% acetonitrile and analysed by LC/MS/MS. […]

CC(=O)ONC(=O)CCC(Cc1ccc(C(=O)O)cc1)C(=O)O (stereo not shown) [Compound 7, 4-(5-(Acetoxyamino)-2-carboxy-5-oxopentyl)benzoic acid]
plasma (systemic) levels of active compound 50 after subcutaneous dosing ([1]; plasma): high systemic levels
sciatic nerve exposure of active compound 50 after subcutaneous dosing ([1]; sciatic nerve): excellent nerve exposure
metabolic stability in human plasma [2]: moderately stable
metabolic stability in mouse plasma [3]: moderately stable
antinociceptive effect on thermal hyperalgesia, ligated side [4]: efficacious
reversal of thermal hyperalgesia [5]: efficacious

CC(=O)ONC(=O)CCC(Cc1cccc(C(=O)O)c1)C(=O)O (stereo not shown) [Compound 34, 3-(5-(Acetoxyamino)-2-carboxy-5-oxopentyl)benzoic acid]
release / plasma exposure of active compound 50 after oral dosing [6]: best release
